# Data: publication PMC5256054 (Iranian Journal of Parasitology, 2016)
# Tests used:
# [1] = test system: P. falciparum strain K1; conditions: read-out: IC50, P. falciparum strain K1; erythrocytic stages in vitro; ref [8]; cited from earlier work
# [2] = test system: P. falciparum strain NF54; conditions: read-out: IC50, P. falciparum strain NF54; erythrocytic stages in vitro; ref [8]; cited from earlier work
# [3] = test system: P. falciparum 3D7 chloroquine (CQ) sensitive strain; test: In vitro antiplasmodial test, Giemsa-stained smear parasitemia count; assay type: cell-based; conditions: Plasmodium falciparum, 3D7, 24 h, read-out: P. falciparum IC50
IC50 [3] [nM],SMILES,IC50 [1] [nM],IC50 [2] [nM]
,"COc1cc(C=C2Oc3cc(OC(C)=O)cc(OC(C)=O)c3C2=O)cc(OC)c1OC(C)=O [4,6,4′-triacetyl-3′,5′-dimethoxy-2-aurone]",7,180
775,"CCN(CC)CCCC(C)Nc1ccnc2cc(Cl)ccc12 (stereo not drawn) [CQ, Chloroquine]",,
